The values that follow come from ChEMBL document CHEMBL5126544, “Recent results from non-basic glycosidase inhibitors: How structural diversity can inform general strategies for improving inhibition potency” (Eur J Med Chem, 2022).

Data set [1] in a line: Cytotoxicity against MDCK cells. In kind it is toxicity, cell-based, Canis lupus familiaris. The conditions noted are these: dog.
The target of another data set is T1, Alpha amylase (Homo sapiens, UniProt P0DUB6).
T1 sequence (P0DUB6 whole entry): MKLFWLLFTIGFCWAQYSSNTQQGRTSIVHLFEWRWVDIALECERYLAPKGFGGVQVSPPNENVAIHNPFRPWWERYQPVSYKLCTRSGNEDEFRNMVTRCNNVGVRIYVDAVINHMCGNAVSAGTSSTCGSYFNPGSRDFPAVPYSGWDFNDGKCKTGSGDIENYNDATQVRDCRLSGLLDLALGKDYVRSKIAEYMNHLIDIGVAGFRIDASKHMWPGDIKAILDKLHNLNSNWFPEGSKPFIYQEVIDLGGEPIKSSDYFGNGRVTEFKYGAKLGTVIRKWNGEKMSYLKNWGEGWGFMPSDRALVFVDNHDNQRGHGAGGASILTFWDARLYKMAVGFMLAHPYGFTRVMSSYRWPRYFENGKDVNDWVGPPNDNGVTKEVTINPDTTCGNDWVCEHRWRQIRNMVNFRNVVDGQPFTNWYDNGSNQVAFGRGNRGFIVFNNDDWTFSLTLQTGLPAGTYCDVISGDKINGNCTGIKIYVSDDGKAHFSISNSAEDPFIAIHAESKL
In words: Inhibition of human salivary alpha-amylase using starch as substrate preincubated for 5 mins followed by substrate addition for 8 mins and incubated with iodide potassium for another 5 mins. On the set-up: species or system Saliva.

Data set [2] in a line: Inhibition of mammalian alpha-amylase using starch as substrate. On the set-up: species or system Mammalia.
The nature of data set [3]: Inhibition of rat intestinal sucrase preincubated for 10 mins followed by substrate addition.
Data set [4] is described as follows: Inhibition of rat intestinal trehalase preincubated for 10 mins followed by substrate addition.
The nature of data set [5]: Inhibition of baker's yeast sucrase preincubated for 10 mins followed by substrate addition. On the set-up: species or system Saccharomyces cerevisiae.
Data set [6] can be described thus: Inhibition of Aspergillus niger maltase preincubated for 10 mins followed by substrate addition.
The nature of data set [7]: Inhibition of rat intestinal isomaltase preincubated for 10 mins followed by substrate addition.
A short description of data set [8]: Inhibition of rat intestinal lactase preincubated for 10 mins followed by substrate addition.
The nature of data set [9]: Inhibition of rat intestinal gluco-amylase preincubated for 10 mins followed by substrate addition.
A short description of data set [10]: Inhibition of rat intestinal maltase preincubated for 10 mins followed by substrate addition.
A further data set concerns Saccharomyces cerevisiae. In words: Inhibition of baker's yeast alpha-glucosidase at 1 uM using p-nitrophenyl-alpha-D-glucopyranoside as substrate preincubated for 30 mins followed by substrate addition and measured after 5 mins relative to control. The conditions noted are these: time 35.0 min.
Data set [11] can be described thus: Inhibition of alpha-glucosidase (unknown origin) using PNP glycoside as substrate preincubated for 30 mins followed by substrate addition and measured after 60 mins by spectrophotometric analysis.
Data set [12] can be described thus: Inhibition of alpha-amyloglucosidase (unknown origin) assessed as reduction in conversion of starch to glucose using starch as substrate preincubated with substrate for 20 mins followed by enzyme addition and measured after 30 mins.
Data set [13] can be described thus: Inhibition of almond beta-glucosidase using PNPG as substrate preincubated for 10 mins followed by substrate addition and measured after 20 mins by spectrophotometric analysis. On the set-up: species or system Prunus dulcis.
Data set [14] in a line: Inhibition of saccharomyces cerevisiae alpha-glucosidase using PNP-G as substrate by spectrophotometric analysis.
Data set [15] in a line: Inhibition of rat intestinal maltase using maltose as substrate incubated for 15 mins by spectometric analysis.
Data set [16] can be described thus: Inhibition of rat intestinal sucrase using sucrose as substrate incubated for 15 mins by spectometric analysis.
Data set [17] can be described thus: Inhibition of yeast alpha-glucosidase using p-nitrophenyl-alpha-D-glucopyranoside as substrate preincubated for 5 mins followed by substrate addition measured after 5 mins by microplate reader analysis. Details: species or system Saccharomyces cerevisiae.
Data set [18] can be described thus: Inhibition of porcine alpha-amylase using starch as substrate preincubated for 10 mins followed by substrate addition and measured after 10 mins by microplate reader analysis. On the set-up: species or system Sus scrofa.

Broadly, the IC50 is the midpoint of a concentration-inhibition curve. Broadly, the inhibition is how much of the control response was suppressed. Low values mean little suppression, high ones strong suppression.

SMILES strings stand for the structures. In brackets after ≈: the same amount, converted by molar mass.

In turn, `C/C=C/Oc1cc(C=O)ccc1O` had an IC50 in [1] above 600 µM.
In turn, `COC(=O)/C=C/c1ccc(OC/C=C(\C)CO)cc1` came in with an IC50 on Alpha amylase of 600 µM.
In data set [2], `CC(C)=CCC/C(C)=C/C=O` [CITRAL] registered a concentration for half-maximal inhibition (IC50) of 120 µM.
With `CC1(C)CCC[C@]2(C)c3cc(O)c(O)cc3C(=O)C[C@@H]12`, the concentration for half-maximal inhibition (IC50) in [3] worked out at 6.8 µM; in data set [4], 30 µM; in [5] it was 11 µM; in data set [6], 14 µM; in data set [7] it was 0.85 µM; in data set [8], 20 µM. In addition, the IC50 in data set [9] came out at 1.6 µM; in data set [10], 12 µM.
On to `C[C@H]1O[C@H](O[C@H]2[C@H](O)[C@@H](O)[C@@H](O[C@H]3[C@H](O)[C@@H](O)C(O)O[C@@H]3CO)O[C@@H]2CO)[C@H](O)[C@@H](O)[C@@H]1N[C@H]1C=C(CO)[C@@H](O)[C@H](O)[C@H]1O` (stereo not given in full) [ACARBOSE], for which the inhibition in the data set on Saccharomyces cerevisiae stood at 56.5%. In addition, the IC50 came out at 38 µM in data set [11] and 15 µM in data set [12].
The compound `O[C@@H]1[C@H](O)Cn2c(nc3ccccc32)[C@@H]1O` returned an IC50 in [13] of 5 µM.
Turning to `COc1ccc(-c2oc3cc(O[C@H]4O[C@H](CO)[C@@H](O)[C@H](O)[C@H]4O)c(OC)c(O)c3c(=O)c2O)cc1CCC(C)COC(C)=O` (stereo not given in full), the 50% inhibitory concentration (IC50) in [14] was 66 µM.
Turning to `Oc1cc(O)c2c(c1)O[C@H](c1ccc(O)c(O)c1)[C@@H](O)C2` [CIANIDANOL], the IC50 in [15] was determined as 1350 µM; in data set [16] it was 2490 µM.
As for `C=C1CC[C@@H]2[C@](C)(CO)[C@H](O)CC[C@@]2(C)[C@@H]1C/C=C1/C(=O)OC[C@H]1O` [ANDROGRAPHOLIDE], the IC50 in [17] and in data set [18] was 11 mg/mL (≈ 31.4 mM) throughout.
